Earlier results on one substance are cited in patent publication US10294298B2, “Human PAC1 antibodies” (AMGEN INC., priority 2013, dated 2019).

The target of one data set is T1, VPAC1 (Homo sapiens, UniProt P32241).
T1 sequence (P32241 31-457): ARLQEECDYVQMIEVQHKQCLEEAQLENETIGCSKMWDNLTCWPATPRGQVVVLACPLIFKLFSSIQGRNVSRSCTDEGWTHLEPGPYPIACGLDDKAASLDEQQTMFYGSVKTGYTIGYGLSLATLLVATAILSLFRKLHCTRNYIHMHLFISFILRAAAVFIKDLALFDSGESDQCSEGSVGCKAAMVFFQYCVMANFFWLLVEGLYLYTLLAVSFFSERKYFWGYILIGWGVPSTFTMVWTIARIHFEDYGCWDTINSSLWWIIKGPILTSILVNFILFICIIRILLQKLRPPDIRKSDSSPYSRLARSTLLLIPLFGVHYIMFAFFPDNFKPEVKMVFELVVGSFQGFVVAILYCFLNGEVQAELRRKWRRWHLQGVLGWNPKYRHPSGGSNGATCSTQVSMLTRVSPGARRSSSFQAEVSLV
The note with it: receptor agonist; background table.

A further data set addresses T2, VPAC2 (Homo sapiens, UniProt P41587).
T2 sequence (P41587 24-438): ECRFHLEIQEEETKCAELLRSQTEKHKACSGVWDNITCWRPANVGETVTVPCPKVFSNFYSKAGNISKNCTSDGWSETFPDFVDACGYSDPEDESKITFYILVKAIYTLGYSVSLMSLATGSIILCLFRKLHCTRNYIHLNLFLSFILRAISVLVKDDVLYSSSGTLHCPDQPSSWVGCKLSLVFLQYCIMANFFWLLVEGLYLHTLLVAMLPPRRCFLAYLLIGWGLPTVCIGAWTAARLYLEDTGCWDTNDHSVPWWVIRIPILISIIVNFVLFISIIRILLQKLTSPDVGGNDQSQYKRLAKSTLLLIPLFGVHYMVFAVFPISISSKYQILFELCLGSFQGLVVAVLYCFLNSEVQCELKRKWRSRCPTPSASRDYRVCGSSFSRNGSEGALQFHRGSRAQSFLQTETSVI
As to conditions: receptor agonist; background table.

Bounds are passed on as bounds.

Consider Maxadilan, for which the 50% effective concentration (EC50) on VPAC1 and on VPAC2 was over 1000 nM each time.
